Source: patent US7842695B2, “Substituted pyrazole compounds” (Merck Patent GmbH, priority 2003, dated 2010)

Legend:
5 HT2C receptor = target: T1, 5 HT2C receptor (Homo sapiens, UniProt P28335); experiment: affinity to the 5 HT2C receptor; format: binding
T1 sequence (P28335 33-458): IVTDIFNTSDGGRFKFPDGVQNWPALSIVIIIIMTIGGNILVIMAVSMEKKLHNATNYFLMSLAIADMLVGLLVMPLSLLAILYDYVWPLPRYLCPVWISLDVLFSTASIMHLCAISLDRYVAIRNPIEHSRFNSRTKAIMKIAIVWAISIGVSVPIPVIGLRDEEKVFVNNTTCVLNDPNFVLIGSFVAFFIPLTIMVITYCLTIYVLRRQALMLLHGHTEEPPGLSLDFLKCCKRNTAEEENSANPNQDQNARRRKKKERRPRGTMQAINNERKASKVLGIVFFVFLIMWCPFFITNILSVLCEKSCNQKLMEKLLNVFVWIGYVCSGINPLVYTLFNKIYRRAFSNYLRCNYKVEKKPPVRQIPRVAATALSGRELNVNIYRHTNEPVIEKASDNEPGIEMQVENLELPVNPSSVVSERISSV

5-HT2A receptors = 5-HT2A receptors (UniProt P14842); experiment: in-vitro affinity to 5-HT2A receptors, [3H]ketanserine displacement (Example A1); format: binding
Source text: The 5-HT2A receptors are exposed both to [^3H]ketanserine (a substance known for its affinity to the receptor) and also to the test compound. The decrease in the affinity of [^3H]ketanserine to the receptor is an indication of the affinity of the test substance to the 5-HT2A receptor.

Structure (SMILES) | IC50 (5 HT2C receptor) [µM] | IC50 (5-HT2A receptors) [µM]
c1coc(-c2c(CN3CCNCC3)cnn2-c2ccc(-c3ccc4c(c3)OCO4)cc2)c1 [Example 534, 1-[1-(4-Benzo-1,3-dioxol-5-ylphenyl)-5-furan-2-yl-1H-pyrazol-4-ylmethyl]piperazine] | 0.11 | 0.002
CN1CCN(Cc2cnn(-c3ccc(-c4ccc5c(c4)OCCO5)cc3)c2-c2ccco2)CC1 [Example 535, 1-{1-[4-(2,3-Dihydrobenzo-1,4-dioxin-6-yl)phenyl]-5-furan-2-yl-1H-pyrazol-4-ylmethyl}-4-methylpiperazine] | 0.35 | 0.0023
CCN1CCN(Cc2cnn(-c3ccc(-c4ccc(F)cc4)cc3)c2-c2occc2C)CC1 [Example 536, 1-Ethyl-4-[1-(4′-fluorobiphenyl-4-yl)-5-(3-methyl-2-furanyl)-1H-pyrazol-4-ytmethyl]piperazine] | 1 | 0.003
CN(C)C1CCN(Cc2cnn(-c3ccc(-c4ccc(F)cc4)cc3)c2-c2ccco2)C1 (centres unmarked) [Example 537, {1-[1-(4′-Fluorobiphenyl-4-yl)-5-furan-2-yl-1H-pyrazol-4-ylmethyl]pyrrolidin-3-yl}dimethylamine] | 0.62 | 0.0031
CN(C)Cc1cnn(-c2ccc(-c3cccc(F)c3)cc2)c1-c1ccco1 [Example 538, [1-(3′-Fluorobiphenyl-4-yl)-5-furan-2-yl-1H-pyrazol-4-ylmethyl]dimethylamine] | 0.17 | 0.0034
CCN1CCN(Cc2cnn(-c3ccc(-c4ccc(F)cc4)cc3)c2-c2ccco2)CC1 [Example 539, 1-Ethyl-4-[1-(4′-fluorobiphenyl-4-yl)-5-furan-2-yl-1H-pyrazol-4-ylmethyl]piperazine] | 0.31 | 0.0036
CN(C)Cc1cnn(-c2ccc(-c3ccc4c(c3)OCCO4)cc2)c1-c1ccco1 [Example 540, {1-[4-(2,3-Dihydrobenzo-1,4-dioxin-6-yl)phenyl]-5-furan-2-yl-1H-pyrazol-4-ylmethyl}dimethylamine] | 0.18 | 0.0036
Fc1cccc(-c2ccc(-n3ncc(CN4CCNCC4)c3-c3ccco3)cc2)c1 [Example 541, 1-[1-(3′-Fluorobiphenyl-4-yl)-5-furan-2-yl-1H-pyrazol-4-ylmethyl]piperazine] | 0.15 | 0.0036
COc1ccc(-c2ccc(-n3ncc(CN(C)C)c3-c3ccco3)cc2)cc1 [Example 542, [5-Furan-2-yl-1-(4′-methoxybiphenyl-4-yl)-1H-pyrazol-4-ylmethyl]dimethylamine] | 0.29 | 0.0038
CN1CCC(N(C)Cc2cnn(-c3ccc(-c4ccc(F)cc4)cc3)c2-c2ccco2)C1 (centres unmarked) [Example 543, [1-(4′-Fluorobiphenyl-4-yl)-5-furan-2-yl-1H-pyrazol-4-ylmethyl]methyl-(1-methyl-3-pyrrolidinyl)amine] | 0.37 | 0.004
OC1CCN(Cc2cnn(-c3ccc(-c4ccc5c(c4)OCCO5)cc3)c2-c2ccco2)C1 (centres unmarked) [Example 544, 1-{1-[4-(2,3-Dihydrobenzo-1,4-dioxin-6-yl)phenyl]-5-furan-2-yl-1H-pyrazol-4-ylmethyl}pyrrolidin-3-ol] | 0.47 | 0.0043
Fc1ccc(-c2ccc(-n3ncc(CN4CCN(C5CCCC5)CC4)c3-c3ccco3)cc2)cc1 [Example 545, 1-Cyclopentyl-4-[1-(4′-fluorobiphenyl-4-yl)-5-furan-2-yl-1H-pyrazol-4-ylmethyl]piperazine] | 2 | 0.0048
COc1ccc(-c2ccc(-n3ncc(CN4CCN(C)CC4)c3-c3ccco3)cc2)cc1 [Example 546, 1-[5-Furan-2-yl-1-(4′-methoxybiphenyl-4-yl)-1H-pyrazol-4-ylmethyl]-4-methylpiperazine] | 0.36 | 0.0048
CC(C)(C)OC(=O)N1CCN(Cc2cnn(-c3ccc(-c4ccc5c(c4)OCO5)cc3)c2-c2ccco2)CC1 [Example 547, tert-Butyl 4-[1-(4-benzo-1,3-dioxol-5-ylphenyl)-5-furan-2-yl-1H-pyrazol-4-ylmethyl]piperazine-1-carboxylate] | 1 | 0.0048
OC1CCN(Cc2cnn(-c3ccc(-c4ccc5c(c4)OCO5)cc3)c2-c2ccco2)C1 (centres unmarked) [Example 548, 1-[1-(4-Benzo-1,3-dioxol-5-ylphenyl)-5-furan-2-yl-1H-pyrazol-4-ylmethyl]pyrrolidin-3-ol] | 0.41 | 0.0051
CN1CCN(Cc2cnn(-c3ccc(-c4cccc(F)c4)cc3)c2-c2ccccc2F)CC1 [Example 549, 1-[1-(3′-Fluorobiphenyl-4-yl)-5-(2-fluorophenyl)-1H-pyrazol-4-ylmethyl]-4-methylpiperazine] | 0.46 | 0.0054
CN1CCN(Cc2cnn(-c3ccc(-c4ccc5c(c4)OCO5)cc3)c2-c2ccco2)CC1 [Example 550, 1-[1-(4-Benzo-1,3-dioxol-5-ylphenyl)-5-furan-2-yl-1H-pyrazol-4-ylmethyl]-4-methylpiperazine] | 0.17 | 0.0058
CCN1CCN(Cc2cnn(-c3ccc(-c4ccc(OC)cc4)cc3)c2-c2ccco2)CC1 [Example 551, 1-Ethyl-4-[5-furan-2-yl-1-(4′-methoxybiphenyl-4-yl)-1H-pyrazol-4-ylmethyl]piperazine] | 0.495 | 0.0061
COc1ccc(-c2ccc(-n3ncc(CN4CCN(C5CCCC5)CC4)c3-c3ccco3)cc2)cc1 [Example 552, 1-Cyclopentyl-4-[5-furan-2-yl-1-(4′-methoxybiphenyl-4-yl)-1H-pyrazol-4-ylmethyl]piperazine] | 2.95 | 0.0061
Cc1ccoc1-c1c(CN(C)C)cnn1-c1ccc(-c2ccc(F)cc2)cc1 [Example 553, [1-(4′-Fluorobiphenyl-4-yl)-5-(3-methyl-2-furanyl)-1H-pyrazol-4-ylmethyl]dimethylamine] | 0.36 | 0.0065
c1coc(-c2c(CN3CCN(C4CCCC4)CC3)cnn2-c2ccc(-c3ccc4c(c3)OCCO4)cc2)c1 [Example 554, 1-Cyclopentyl-4-{1-[4-(2,3-dihydrobenzo-1,4-dioxin-6-yl)phenyl]-5-furan-2-yl-1H-pyrazol-4-ylmethyl}piperazine] | 1.3 | 0.007
CN1CCN(Cc2cnn(-c3ccc(-c4ccc(F)cc4)cc3)c2-c2ccsc2)CC1 [Example 556, 1-[1-(4′-Fluorobiphenyl-4-yl)-5-thiophen-3-yl-1H-pyrazol-4-ylmethyl]-4-methylpiperazine] | 0.63 | 0.0078
CCN1CCN(Cc2cnn(-c3ccc(-c4ccc5c(c4)OCCO5)cc3)c2-c2ccco2)CC1 [Example 557, 1-{1-[4-(2,3-Dihydrobenzo-1,4-dioxin-6-yl)phenyl]-5-furan-2-yl-1H-pyrazol-4-ylmethyl}-4-ethylpiperazine] | 0.349 | 0.008
CC(C)N1CCN(Cc2cnn(-c3ccc(-c4ccc(F)cc4)cc3)c2-c2ccco2)CC1 [Example 558, 1-[1-(4′-Fluorobiphenyl-4-yl)-5-furan-2-yl-1H-pyrazol-4-ylmethyl]-4-isopropylpiperazine] | 0.37 | 0.0082
CN1CCN(Cc2cnn(-c3ccc(-c4cccc(F)c4)cc3)c2-c2ccco2)CC1 [Example 559, 1-[1-(3′-Fluorobiphenyl-4-yl)-5-furan-2-yl-1H-pyrazol-4-ylmethyl]-4-methylpiperazine] | 0.25 | 0.0088
